Measurements taken from ChEMBL document CHEMBL1687887, “Evolution of potent and stable placental-growth-factor-1-targeting CovX-bodies from phage display peptide discovery” (J Med Chem, 2011).
Bridge positions count the residues as written; N and C are the ends. Peptide text beside a SMILES is read from it. * marks the point of attachment. X1 = O=C(COCC(=O)*)Nc1ccc(CCC(=O)N2CCC2=O)cc1

What was measured:
Placenta growth factor [1] = molecular target: T1, Placenta growth factor (Homo sapiens, UniProt P49763); test: Binding affinity to human PlGF-1; conditions: read-out: Kd
T1 sequence (P49763 whole entry): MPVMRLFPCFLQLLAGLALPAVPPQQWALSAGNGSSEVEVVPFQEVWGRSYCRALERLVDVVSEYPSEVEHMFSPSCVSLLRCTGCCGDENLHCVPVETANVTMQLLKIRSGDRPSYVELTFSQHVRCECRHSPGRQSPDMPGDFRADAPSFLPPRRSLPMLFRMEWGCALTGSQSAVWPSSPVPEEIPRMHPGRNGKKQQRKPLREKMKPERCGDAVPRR

[2] = Stability in Swiss Webster mouse serum assessed as functional compound remaining after 6 hrs; assay type: ADME, cell-free; conditions: read-out: Stability
Placenta growth factor [3] = molecular target: T2, Placenta growth factor (Mus musculus, UniProt P49764); test: Inhibition of mouse PlGF-VEGFR-1 interaction by ELISA
T2 sequence (P49764 whole entry): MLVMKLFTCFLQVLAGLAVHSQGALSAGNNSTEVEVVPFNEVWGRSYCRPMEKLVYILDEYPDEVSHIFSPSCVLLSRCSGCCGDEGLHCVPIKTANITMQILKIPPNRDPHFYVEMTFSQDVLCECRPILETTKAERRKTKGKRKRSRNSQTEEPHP

Placenta growth factor [4] = molecular target: T1, Placenta growth factor; test: Inhibition of human PlGF-1-VEGFR-1 interaction by ELISA

SMILES	Kd (Placenta growth factor [1]) [nM]	remaining at 6 h [2] [%]	IC50 (Placenta growth factor [3]) [nM]	IC50 (Placenta growth factor [4]) [nM]
CC[C@H](C)[C@@H]1NC(=O)[C@H](Cc2ccc(O)cc2)NC(=O)[C@H](Cc2cnc[nH]2)NC(=O)[C@@H](NC(=O)[C@@H](NC(=O)[C@H](CCC(=O)O)NC(=O)[C@H](Cc2ccccc2)NC(C)=O)C(C)C)CSSC[C@@H](C(=O)N[C@H](C(=O)N[C@@H](CCCN=C(N)N)C(=O)N[C@@H](Cc2ccc(O)cc2)C(N)=O)[C@@H](C)O)NC(=O)[C@H](Cc2cnc[nH]2)NC(=O)[C@@H]2CCCN2C(=O)[C@H](CC(C)C)NC(=O)[C@H](CCCCNC(=O)COCC(=O)Nc2ccc(CCC(=O)N3CCC3=O)cc2)NC1=O	0.3	4	0.7	
CC[C@H](C)[C@@H]1NC(=O)[C@H](Cc2ccc(O)cc2)NC(=O)[C@H](Cc2cnc[nH]2)NC(=O)[C@@H](NC(=O)[C@@H](NC(=O)[C@H](CCC(=O)O)NC(=O)[C@H](Cc2ccccc2)NC(C)=O)C(C)C)CSSC[C@@H](C(=O)N[C@@H](C(=O)N[C@H](CCCN=C(N)N)C(=O)N[C@H](Cc2ccc(O)cc2)C(N)=O)[C@@H](C)O)NC(=O)[C@H](Cc2cnc[nH]2)NC(=O)[C@@H]2CCCN2C(=O)[C@H](CC(C)C)NC(=O)[C@H](CCCCNC(=O)COCC(=O)Nc2ccc(CCC(=O)N3CCC3=O)cc2)NC1=O		23	0.2	
CSCC[C@H](NC(=O)[C@@H](NC(=O)[C@H](CCCCNC(C)=O)NC(=O)[C@@H]1CSSC[C@H](NC(=O)[C@H](CCCCNC(=O)COCC(=O)Nc2ccc(CCC(=O)N3CCC3=O)cc2)NC(=O)[C@H](CC(=O)O)NC(=O)[C@H](Cc2ccccc2)NC(C)=O)C(=O)N[C@@H](CC(N)=O)C(=O)N[C@@H](Cc2c[nH]c3ccccc23)C(=O)N[C@@H](C(C)C)C(=O)N[C@@H]([C@@H](C)O)C(=O)N[C@@H](CC(C)C)C(=O)N2CCC[C@H]2C(=O)N[C@@H](Cc2cnc[nH]2)C(=O)N1)C(C)C)C(N)=O (Ac-FDK(X1)CNWVTLPHCK(Ac)VM-NH2; disulfide 4-12)	> 1000		> 1000	
CSCC[C@H](NC(=O)[C@@H](NC(=O)[C@H](CCCCNC(C)=O)NC(=O)[C@@H]1CSSC[C@H](NC(=O)[C@@H](NC(=O)[C@H](CC(=O)O)NC(=O)[C@H](Cc2ccccc2)NC(C)=O)C(C)C)C(=O)N[C@@H](CCCCNC(=O)COCC(=O)Nc2ccc(CCC(=O)N3CCC3=O)cc2)C(=O)N[C@@H](Cc2c[nH]c3ccccc23)C(=O)N[C@@H](C(C)C)C(=O)N[C@@H]([C@@H](C)O)C(=O)N[C@@H](CC(C)C)C(=O)N2CCC[C@H]2C(=O)N[C@@H](Cc2cnc[nH]2)C(=O)N1)C(C)C)C(N)=O (Ac-FDVCK(X1)WVTLPHCK(Ac)VM-NH2; disulfide 4-12)	6		624	
CSCC[C@H](NC(=O)[C@@H](NC(=O)[C@H](CCCCN)NC(=O)[C@@H]1CSSC[C@H](NC(=O)[C@@H](NC(=O)[C@H](CC(=O)O)NC(=O)[C@H](Cc2ccccc2)NC(C)=O)C(C)C)C(=O)N[C@@H](CCCCN)C(=O)N[C@@H](Cc2c[nH]c3ccccc23)C(=O)N[C@@H](C(C)C)C(=O)N[C@@H]([C@@H](C)O)C(=O)N[C@@H](CC(C)C)C(=O)N2CCC[C@H]2C(=O)N[C@@H](Cc2cnc[nH]2)C(=O)N1)C(C)C)C(N)=O (Ac-FDVCKWVTLPHCKVM-NH2; disulfide 4-12)	1000			1000
CSCC[C@H](NC(=O)[C@@H](NC(=O)[C@H](CCCCNC(C)=O)NC(=O)[C@@H]1CSSC[C@H](NC(=O)[C@@H](NC(=O)[C@H](CC(=O)O)NC(=O)[C@H](Cc2ccccc2)NC(C)=O)C(C)C)C(=O)N[C@@H](CC(N)=O)C(=O)N[C@@H](CCCCNC(=O)COCC(=O)Nc2ccc(CCC(=O)N3CCC3=O)cc2)C(=O)N[C@@H](C(C)C)C(=O)N[C@@H]([C@@H](C)O)C(=O)N[C@@H](CC(C)C)C(=O)N2CCC[C@H]2C(=O)N[C@@H](Cc2cnc[nH]2)C(=O)N1)C(C)C)C(N)=O (Ac-FDVCNK(X1)VTLPHCK(Ac)VM-NH2; disulfide 4-12)	> 1000		> 1000	
CSCC[C@H](NC(=O)[C@@H](NC(=O)[C@H](CCCCNC(C)=O)NC(=O)[C@@H]1CSSC[C@H](NC(=O)[C@@H](NC(=O)[C@H](CC(=O)O)NC(=O)[C@H](Cc2ccccc2)NC(C)=O)C(C)C)C(=O)N[C@@H](CC(N)=O)C(=O)N[C@@H](Cc2c[nH]c3ccccc23)C(=O)N[C@@H](CCCCNC(=O)COCC(=O)Nc2ccc(CCC(=O)N3CCC3=O)cc2)C(=O)N[C@@H]([C@@H](C)O)C(=O)N[C@@H](CC(C)C)C(=O)N2CCC[C@H]2C(=O)N[C@@H](Cc2cnc[nH]2)C(=O)N1)C(C)C)C(N)=O (Ac-FDVCNWK(X1)TLPHCK(Ac)VM-NH2; disulfide 4-12)	> 1000		> 1000	
CSCC[C@H](NC(=O)[C@@H](NC(=O)[C@H](CCCCNC(C)=O)NC(=O)[C@@H]1CSSC[C@H](NC(=O)[C@@H](NC(=O)[C@H](CC(=O)O)NC(=O)[C@H](Cc2ccccc2)NC(C)=O)C(C)C)C(=O)N[C@@H](CC(N)=O)C(=O)N[C@@H](Cc2c[nH]c3ccccc23)C(=O)N[C@@H](C(C)C)C(=O)N[C@@H](CCCCNC(=O)COCC(=O)Nc2ccc(CCC(=O)N3CCC3=O)cc2)C(=O)N[C@@H](CC(C)C)C(=O)N2CCC[C@H]2C(=O)N[C@@H](Cc2cnc[nH]2)C(=O)N1)C(C)C)C(N)=O (Ac-FDVCNWVK(X1)LPHCK(Ac)VM-NH2; disulfide 4-12)	9	20	4	
CSCC[C@H](NC(=O)[C@@H](NC(=O)[C@H](CCCCNC(C)=O)NC(=O)[C@@H]1CSSC[C@H](NC(=O)[C@@H](NC(=O)[C@H](CC(=O)O)NC(=O)[C@H](Cc2ccccc2)NC(C)=O)C(C)C)C(=O)N[C@@H](CC(N)=O)C(=O)N[C@@H](Cc2c[nH]c3ccccc23)C(=O)N[C@@H](C(C)C)C(=O)N[C@@H]([C@@H](C)O)C(=O)N[C@@H](CCCCNC(=O)COCC(=O)Nc2ccc(CCC(=O)N3CCC3=O)cc2)C(=O)N2CCC[C@H]2C(=O)N[C@@H](Cc2cnc[nH]2)C(=O)N1)C(C)C)C(N)=O (Ac-FDVCNWVTK(X1)PHCK(Ac)VM-NH2; disulfide 4-12)	> 1000		> 1000	
CSCC[C@H](NC(=O)[C@@H](NC(=O)[C@H](CCCCNC(C)=O)NC(=O)[C@@H]1CSSC[C@H](NC(=O)[C@@H](NC(=O)[C@H](CC(=O)O)NC(=O)[C@H](Cc2ccccc2)NC(C)=O)C(C)C)C(=O)N[C@@H](CC(N)=O)C(=O)N[C@@H](Cc2c[nH]c3ccccc23)C(=O)N[C@@H](C(C)C)C(=O)N[C@@H]([C@@H](C)O)C(=O)N[C@@H](CC(C)C)C(=O)N[C@@H](CCCCNC(=O)COCC(=O)Nc2ccc(CCC(=O)N3CCC3=O)cc2)C(=O)N[C@@H](Cc2cnc[nH]2)C(=O)N1)C(C)C)C(N)=O (Ac-FDVCNWVTLK(X1)HCK(Ac)VM-NH2; disulfide 4-12)	> 1000		> 1000	
CSCC[C@H](NC(=O)[C@@H](NC(=O)[C@H](CCCCNC(C)=O)NC(=O)[C@@H]1CSSC[C@H](NC(=O)[C@@H](NC(=O)[C@H](CC(=O)O)NC(=O)[C@H](Cc2ccccc2)NC(C)=O)C(C)C)C(=O)N[C@@H](CC(N)=O)C(=O)N[C@@H](Cc2c[nH]c3ccccc23)C(=O)N[C@@H](C(C)C)C(=O)N[C@@H]([C@@H](C)O)C(=O)N[C@@H](CC(C)C)C(=O)N2CCC[C@H]2C(=O)N[C@@H](CCCCNC(=O)COCC(=O)Nc2ccc(CCC(=O)N3CCC3=O)cc2)C(=O)N1)C(C)C)C(N)=O (Ac-FDVCNWVTLPK(X1)CK(Ac)VM-NH2; disulfide 4-12)	> 1000		> 1000	
CC[C@H](C)[C@@H]1NC(=O)[C@H](Cc2ccc(O)cc2)NC(=O)[C@H](Cc2cnc[nH]2)NC(=O)[C@@H](NC(=O)[C@@H](NC(=O)[C@H](CCC(=O)O)NC(=O)[C@H](Cc2ccccc2)NC(C)=O)C(C)C)CSSC[C@@H](C(=O)N[C@H](C(=O)N[C@@H](CCCN=C(N)N)C(=O)N[C@@H](Cc2ccc(O)cc2)C(N)=O)[C@@H](C)O)NC(=O)[C@H](Cc2cnc[nH]2)NC(=O)[C@@H]2CCCN2C(=O)[C@H](CC(C)C)NC(=O)[C@H](CCCN=C(N)N)NC1=O (Ac-FEVCHYIRLPHCTRY-NH2; disulfide 4-12)			400	
CC[C@H](C)[C@H](NC(=O)[C@H](CC(=O)O)NC(=O)[C@H](Cc1ccc(O)cc1)NC(C)=O)C(=O)N[C@H]1CSSC[C@@H](C(=O)N[C@@H](CCCCN)C(=O)N[C@@H](C)C(=O)N[C@H](C(N)=O)C(C)C)NC(=O)[C@H](Cc2cnc[nH]2)NC(=O)[C@@H]2CCCN2C(=O)[C@H](CC(C)C)NC(=O)[C@H](CCCNC(=N)N)NC(=O)[C@H]([C@@H](C)CC)NC(=O)[C@H](Cc2ccc(O)cc2)NC(=O)[C@H](CCCCN)NC1=O (Ac-YDICKYIRLPHCKAV-NH2; disulfide 4-12)				9000
CC[C@H](C)[C@H](NC(=O)[C@H](CC(=O)O)NC(=O)[C@H](Cc1ccc(O)cc1)NC(C)=O)C(=O)N[C@H]1CSSC[C@@H](C(=O)N[C@@H](CCCN=C(N)N)C(=O)N[C@@H](C)C(=O)N[C@H](C(N)=O)C(C)C)NC(=O)[C@H](Cc2cnc[nH]2)NC(=O)[C@@H]2CCCN2C(=O)[C@H](CC(C)C)NC(=O)[C@H](CCCNC(=N)N)NC(=O)[C@H]([C@@H](C)CC)NC(=O)[C@H](Cc2ccc(O)cc2)NC(=O)[C@H](CCCCN)NC1=O (Ac-YDICKYIRLPHCRAV-NH2; disulfide 4-12)				9000
CSCC[C@H](NC(=O)[C@@H](NC(=O)[C@H](CCCCN)NC(=O)[C@@H]1CSSC[C@H](NC(=O)[C@@H](NC(=O)[C@H](CC(=O)O)NC(=O)[C@H](Cc2ccccc2)NC(=O)COCC(=O)Nc2ccc(CCC(=O)N3CCC3=O)cc2)C(C)C)C(=O)N[C@@H](CCCCN)C(=O)N[C@@H](Cc2c[nH]c3ccccc23)C(=O)N[C@@H](C(C)C)C(=O)N[C@@H]([C@@H](C)O)C(=O)N[C@@H](CC(C)C)C(=O)N2CCC[C@H]2C(=O)N[C@@H](Cc2cnc[nH]2)C(=O)N1)C(C)C)C(N)=O (X1-FDVCKWVTLPHCKVM-NH2; disulfide 4-12)	200			1000
